Measured values taken from US20060069132A1, “Azolecarboxamide herbicides” (priority 2004, published 2006).

How the values were obtained:
Experiment in all cases: Test C pre-/postemergence herbicide test
cocklebur = type: in vivo, Xanthium strumarium; details: for Plant response rating, Cocklebur: preemergence
How it was run: (§1)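 Visual ratings on a 0–100 scale (100 = complete control) made versus untreated controls after 12 to 14 greenhouse days. Test chemicals, formulated in surfactant-containing non-phytotoxic solvent, applied preemergence to planted seeds or postemergence to 1- to 4-leaf plants (2 to 18 cm).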

bermudagrass = type: in vivo, Cynodon dactylon; details: for Plant response rating, Bermudagrass: preemergence
How it was run: as §1

corn = type: in vivo, Zea mays; details: preemergence
How it was run: as §1

goosegrass = type: in vivo, Eleusine indica; details: preemergence
How it was run: as §1

Surinam grass = type: in vivo, Urochloa decumbens; details: preemergence
How it was run: as §1

large crabgrass = type: in vivo, Digitaria sanguinalis; details: preemergence
How it was run: as §1

giant foxtail = type: in vivo, Setaria faberi; details: preemergence
How it was run: as §1

[1] = test system: common (oilseed) sunflower; type: in vivo, Helianthus annuus; details: preemergence
From the text: Seeds of plant species selected from bermudagrass (Cynodon dactylon (L.) Pers.), Surinam grass (Urochloa decumbens (Staph) R. D. Webster, previously named Brachiaria decumbens Stapf), cocklebur (Xanthium strumarium L.), corn (Zea mays L.), large crabgrass (Digitaria sanguinalis (L.) Scop.), woolly cupgrass (Eriochloa villosa (Thunb.) Kunth), giant foxtail (Setaria faberi Herrm.), goosegrass (Eleusine indica (L.) Gaertn.), johnsongrass (Sorghum halepense (L.) Pers.), kochia (Kochia scoparia (L.) Schrad.), lambsquarters (Chenopodium album L.), morningglory (Ipomoea coccinea L.), eastern black nightshade (Solanum ptycanthum Dunal), yellow nutsedge (Cyperus esculentus L.), pigweed (Amaranthus retroflexus L.), common ragweed (Ambrosia elatior L.), soybean (Glycine max (L.) Merr.), common (oilseed) sunflower (Helianthus annuus L.) and velvetleaf (Abutilon theophrasti Medik.) were planted and treated preemergence with test chemicals formulated in a non-phytotoxic solvent mixture which included a surfactant.
At the same time, plants selected from these crop and weed species and also winter barley (Hordeum vulgare L.), blackgrass (Alopecurus myosuroides Huds.), canarygrass (Phalaris minor Retz.), chickweed (Stellaria media (L.) Vill.), downy bromegrass (Bromus tectorum L.), green foxtail (Setaria viridis (L.) Beauv.), Italian ryegrass (Lolium multiflorum Lam.), wheat (Triticum aestivum L.), wild oat (Avenafatua L.) and windgrass (Apera spica-venti (L.) Beauv.) were treated with postemergence applications of some of the test chemicals formulated in the same manner. Plants ranged in height from 2 to 18 cm (1- to 4-leaf stage) for postemergence treatments. Plant species in the flooded paddy test consisted of rice (Oryza sativa), smallflower umbrella sedge (Cyperus difformis L.), ducksalad (Heteranthera limosa (Sw.) Willd.) and barnyardgrass (Echinochloa crus-galli (L.) Beauv.) grown to the 2-leaf stage for testing. Treated plants and controls were maintained in a greenhouse for 12 to 14 days, after which time all species were compared to controls and visually evaluated. Plant response ratings, summarized in Table C, are based on a scale of 0 to 100 where 0 is no effect and 100 is complete control. A dash (-) response means no test result.

[2] = 125 g ai/ha, scale 0 (no effect) to 100 (complete control), visual, 12 to 14 days
[3] = Preemergence, 500 g ai/ha, scale 0 to 100, 0 no effect, 100 complete control
[4] = 500 g ai/ha, scale 0 to 100 (0 no effect, 100 complete control), visual, 12 to 14 days

CCn1nc(C(C)(C)C)cc1C(=O)Nc1cc(C(=O)N2CCCC2)ccc1F [Compound 242]
Plant response rating, Cocklebur (cocklebur; 62 g ai/ha, scale 0 to 100): 0 | Plant response rating, Cocklebur (cocklebur; [2]): 0 | Plant response rating, Cocklebur (cocklebur; 250 g ai/ha, scale 0-100): 35 | Cocklebur plant response rating (cocklebur; [3]): 50 | Plant response rating, Bermudagrass (bermudagrass; 62 g ai/ha, scale 0 to 100, 0 no effect, 100 complete control): 95 | Plant response rating, Bermudagrass (bermudagrass; [2]): 100 | Plant response rating, Bermudagrass (bermudagrass; 250 g ai/ha, scale 0-100): 100 | Bermudagrass plant response rating (bermudagrass; [3]): 100 | Plant response rating, Corn (corn; 62 g ai/ha, scale 0 to 100): 0 | Plant response rating, Corn (corn; [2]): 0 | Plant response rating, Corn (corn; 250 g ai/ha, scale 0-100): 20 | Plant response rating, Corn (corn; [4]): 25 | Plant response rating, Goosegrass (goosegrass; 62 g ai/ha, scale 0 to 100): 100 | Plant response rating, Goosegrass (goosegrass; [2]): 100 | Plant response rating, Goosegrass (goosegrass; 250 g ai/ha, scale 0-100): 100 | Plant response rating, Goosegrass (goosegrass; [4]): 100 | Plant response rating, Surinam Grass (Surinam grass; 62 g ai/ha, scale 0 to 100): 85 | Plant response rating, Surinam Grass (Surinam grass; 250 g ai/ha, scale 0-100): 95 | Plant response rating, Surinam Grass (Surinam grass; [4]): 100 | Plant response rating, Crabgrass, Large (large crabgrass; 62 g ai/ha, scale 0 to 100): 100 | Plant response rating, Crabgrass, Large (large crabgrass; [2]): 100 | Plant response rating, Crabgrass, Large (large crabgrass; 250 g ai/ha, scale 0-100): 100 | Plant response rating, Crabgrass, Large (large crabgrass; [4]): 100 | Plant response rating, Foxtail, Giant (giant foxtail; 62 g ai/ha, scale 0 to 100): 85 | Plant response rating, Foxtail, Giant (giant foxtail; [2]): 100 | Plant response rating, Foxtail, Giant (giant foxtail; 250 g ai/ha, scale 0-100): 100 | Plant response rating, Foxtail, Giant (giant foxtail; [4]): 100 | Plant response rating, Sunflower ([1]; 62 g ai/ha, scale 0 to 100): 0 | Plant response rating, Sunflower ([1]; 250 g ai/ha, scale 0-100): 50 | Plant response rating, Sunflower [1, 4]: 95
